Source: patent US12239643B2, “Therapeutic agent for inflammatory diseases, autoimmune diseases, fibrotic diseases, and cancer diseases” (MEIJI SEIKA PHARMA CO., LTD., priority 2018, dated 2025)
Like-named read-outs stand apart in the source and are kept apart here.

What was measured:
PDE4 = experiment: Evaluation of PDE4 inhibitory activity, scintillation proximity assay; type: biochemical; details: scintillation proximity assay
Procedure, shortened: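 IC50 was derived from inhibition curves, referenced to an enzyme-free blank and a DMSO-only control. Compound, PDE4 preparation and tritiated cAMP reacted 120 min at RT in Tris-HCl buffer (pH 7.4) with MgCl2, EGTA and BSA; YSi-SPA beads with ZnSO4 bound product before scintillation counting.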

[1] = Hepatic metabolic stability (rat liver microsome method); type: in vitro ADME; details: rat liver microsomes 0.5 mg/mL, test substance 1 μM, NADPH 1 mM, 37° C., 30 minutes
Description: Metabolic stability in rat liver microsomes was evaluated by the following method. First, in 100 mM of potassium phosphate buffer solution (pH 7.4), liver microsomes (concentration at reaction: 0.5 mg/mL) and the test substance (concentration at reaction: 1 μM) were preincubated at 37° C. Five minutes later, 100 mM of potassium phosphate buffer (pH 7.4) solution of NADPH (concentration at reaction: 1 mM) was mixed thereto to start the reaction. After a predetermined time passed, acetonitrile was mixed to the reaction mixture to stop the reaction. Here, the reaction time was 0 and 30 minutes, and drug concentration measurement was performed for each time period using LC-MS. The % remaining value of the test compound was calculated from the value for 0 minutes and the value for 30 minutes, using the calculation formula below: % Remaining=(Value for 30 Minutes/Value for 0 Minutes)×100
The results of measuring the rat liver microsome metabolic Stability (% remaining for 30-minute reaction) for the test compound by the above method were evaluated in accordance with the following evaluated basis; A: a % remaining rate of 75% or more, B: 60% or more and less than 75%, C: 45% or more and less than 60%, and D: less than 45%.

[2] = read-out: PDE4 Inhibitory Activity (Evaluation 1; concentration for the inhibition rate of 50%)
[3] = class symbols of Evaluation 1, read-out: PDE4 Inhibitory Activity (concentration for the inhibition rate of 50%, IC50), Evaluation 1

| SMILES | IC50 (PDE4; [2]) [µM] | Residual ratio (% remaining for 30-minute reaction) [1] | IC50 (PDE4; [3]) [µM] |
| --- | --- | --- | --- |
| CC(O)(CO)C(F)(F)Oc1ccc(-c2nccs2)c2oc(N3CC4CC(C3)N4)nc12 (racemic) [Example 326, 3-((2-(3,6-Diazabicyclo[3.1.1]heptan-3-yl)-7-(thiazol-2-yl)benzo[d]oxazol-4-yl)oxy)-3,3-difluoro-2-methylpropane-1,2-diol] | < 0.1 | A (A: a % remaining rate of 75% or more) | – |
| CC(O)(CO)C(F)(F)Oc1ccc(-c2nccs2)c2oc(N3CC4CC(C3)N4)nc12 (single isomer, unassigned) [Example 364, 3-((2-(3,6-Diazabicyclo[3.1.1]heptan-3-yl)-7-(thiazol-2-yl)benzo[d]oxazol-4-yl)oxy)-3,3-difluoro-2-methylpropane-1,2-diol] | < 0.1 | A (A: a % remaining rate of 75% or more) | – |
| CC(O)(CO)C(F)(F)Oc1ccc(-c2nccs2)c2oc(N3CC4CC(C3)N4)nc12 (single isomer, unassigned) [Example 365, 3-((2-(3,6-Diazabicyclo[3.1.1]heptan-3-yl)-7-(thiazol-2-yl)benzo[d]oxazol-4-yl)oxy)-3,3-difluoro-2-methylpropane-1,2-diol] | < 0.1 | A (A: a % remaining rate of 75% or more) | – |
| CC(O)C(F)(F)Oc1ccc(-c2nccs2)c2oc(N3CC4CC(C3)N4O)nc12 (single isomer, unassigned) [Example 372, 3-(4-(1,1-Difluoro-2-hydroxypropoxy)-7-(thiazol-2-yl)benzo[d]oxazol-2-yl)-3,6-diazabicyclo[3.1.1]heptan-6-ol] | < 0.1 | B (B: 60% or more and less than 75%) | – |
| CC(O)C(F)(F)Oc1ccc(-c2nccs2)c2oc(N3CC4CC(C3)N4O)nc12 (single isomer, unassigned) [Example 373, 3-(4-(1,1-Difluoro-2-hydroxypropoxy)-7-(thiazol-2-yl)benzo[d]oxazol-2-yl)-3,6-diazabicyclo[3.1.1]heptan-6-ol] | < 0.1 | B (B: 60% or more and less than 75%) | – |
| FC(F)(F)Oc1c(Cl)cc(-n2cccn2)c2oc(N3CC4CCC(C3)N4)nc12 [Example 5, 2-(3,8-Diazabicyclo[3.2.1]octan-3-yl)-5-chloro-7-(1H-pyrazol-1-yl)-4-(trifluoromethoxy)benzo[d]oxazole] | – | B (B: 60% or more and less than 75%) | < 0.1 |
| FC(F)(F)Oc1c(Cl)cc(-c2cscn2)c2oc(N3CC4CCC(C3)N4)nc12 [Example 8, 2-(3,8-Diazabicyclo[3.2.1]octan-3-yl)-5-chloro-7-(thiazol-4-yl)-4-(trifluoromethoxy)benzo[d]oxazole] | – | A (A: a % remaining rate of 75% or more) | < 0.1 |
| Fc1ccc(-c2cc(Cl)c(OC(F)(F)F)c3nc(N4CC5CCC(C4)N5)oc23)nc1 [Example 10, 2-(3,8-Diazabicyclo[3.2.1]octan-3-yl)-5-chloro-7-(5-fluoropyridin-2-yl)-4-(trifluoromethoxy)benzo[d]oxazole] | – | A (A: a % remaining rate of 75% or more) | < 0.1 |
| FC(F)(F)c1c(Cl)cc(-c2ccccn2)c2oc(N3CC4CCCC(C3)N4)nc12 [Example 12, 2-(3,9-Diazabicyclo[3.3.1]nonan-3-yl)-5-chloro-7-(pyridin-2-yl)-4-(trifluoromethyl)benzo[d]oxazole] | – | B (B: 60% or more and less than 75%) | < 0.1 |
| FC(F)(F)c1c(Cl)cc(-n2cccn2)c2oc(N3CC4CC(C3)N4)nc12 [Example 17, 2-(3,6-Diazabicyclo[3.1.1]heptan-3-yl)-5-chloro-7-(1H-pyrazol-1-yl)-4-(trifluoromethyl)benzo[d]oxazole] | – | B (B: 60% or more and less than 75%) | < 0.1 |
| OC(c1cc(-c2nccs2)c2oc(N3CC4CCC(C3)N4)nc2c1)C(F)F (centres unmarked) [Example 104, 1-(2-(3,8-Diazabicyclo[3.2.1]octan-3-yl)-7-(thiazol-2-yl)benzo[d]oxazol-5-yl)-2,2-difluoroethan-1-ol] | – | B (B: 60% or more and less than 75%) | < 0.1 |
| FC(F)(F)C(OCc1nnn[nH]1)c1ccc(-c2nccs2)c2oc(N3CC4CCC(C3)N4)nc12 (centres unmarked) [Example 230, 4-(1-((1H-tetrazol-5-yl)methoxy)-2,2,2-trifluoroethyl)-2-(3,8-diazabicyclo[3.2.1]octan-3-yl)-7-(thiazol-2-yl)benzo[d]oxazole] | < 0.1 | A (A: a % remaining rate of 75% or more) | – |
| FC(F)(F)C(OCc1nnn[nH]1)c1ccc(-c2nccs2)c2oc(N3CC4CC(C3)N4)nc12 (centres unmarked) [Example 231, 4-(1-((1H-tetrazol-5-yl)methoxy)-2,2,2-trifluoroethyl)-2-(3,6-diazabicyclo[3.1.1]heptan-3-yl)-7-(thiazol-2-yl)benzo[d]oxazole] | < 0.1 | A (A: a % remaining rate of 75% or more) | – |
| c1csc(-c2ccc(OC3CCOCC3)c3nc(N4CC5CCC(C4)N5)oc23)n1 [Example 254, 2-(3,8-Diazabicyclo[3.2.1]octan-3-yl)-4-((tetrahydro-2H-pyran-4-yl)oxy)-7-(thiazol-2-yl)benzo[d]oxazole] | < 0.1 | A (A: a % remaining rate of 75% or more) | – |
| C[C@@H](O)COc1ccc(-c2nccs2)c2oc(N3CC4CC(C3)N4)nc12 [Example 259, (2R)-1-((2-(3,6-diazabicyclo[3.1.1]heptan-3-yl)-7-(thiazol-2-yl)benzo[d]oxazol-4-yl)oxy)propan-2-ol] | < 0.1 | A (A: a % remaining rate of 75% or more) | – |
| OC1CC(Oc2ccc(-c3nccs3)c3oc(N4CC5CC(C4)N5)nc23)C1 (centres unmarked) [Example 285, 3-((2-(3,6-Diazabicyclo[3.1.1]heptan-3-yl)-7-(thiazol-2-yl)benzo[d]oxazol-4-yl)oxy)cyclobutan-1-ol] | < 0.1 | A (A: a % remaining rate of 75% or more) | – |
| c1csc(-c2ccc(OC3CCOCC3)c3nc(N4CC5CC(C4)N5)oc23)n1 [Example 294, 2-(3,6-Diazabicyclo[3.1.1]heptan-3-yl)-4-((tetrahydro-2H-pyran-4-yl)oxy)-7-(thiazol-2-yl)benzo[d]oxazole] | < 0.1 | A (A: a % remaining rate of 75% or more) | – |
| CC(C)(O)C(F)(F)Oc1ccc(-n2cccn2)c2oc(N3CC4CC(C3)N4)nc12 [Example 304, 1-((2-(3,6-Diazabicyclo[3.1.1]heptan-3-yl)-7-(1H-pyrazol-1-yl)benzo[d]oxazol-4-yl)oxy)-1,1-difluoro-2-methylpropan-2-ol] | < 0.1 | A (A: a % remaining rate of 75% or more) | – |
| Cc1csc(-c2ccc(OC(F)(F)C(C)(C)O)c3nc(N4CC5CC(C4)N5)oc23)n1 [Example 306, 1-((2-(3,6-Diazabicyclo[3.1.1]heptan-3-yl)-7-(4-methylthiazol-2-yl)benzo[d]oxazol-4-yl)oxy)-1,1-difluoro-2-methylpropan-2-ol] | 0.1 to 1 | A (A: a % remaining rate of 75% or more) | – |
| OCC(F)(F)Oc1ccc(-c2ccccn2)c2oc(N3CC4CC(C3)N4)nc12 [Example 315, 2-((2-(3,6-Diazabicyclo[3.1.1]heptan-3-yl)-7-(pyridin-2-yl)benzo[d]oxazol-4-yl)oxy)-2,2-difluoroethan-1-ol] | < 0.1 | A (A: a % remaining rate of 75% or more) | – |
| c1ccc(Oc2ccc(-c3nccs3)c3oc(N4CC5CC(C4)N5)nc23)nc1 [Example 337, 2-(3,6-Diazabicyclo[3.1.1]heptan-3-yl)-4-(pyridin-2-yloxy)-7-(thiazol-2-yl)benzo[d]oxazole] | – | B (B: 60% or more and less than 75%) | – |
| CN(C)C(=O)C(F)(F)Oc1ccc(-c2nccs2)c2oc(N3CC4CC(C3)N4)nc12 [Example 408, 2-((2-(3,6-Diazabicyclo[3.1.1]heptan-3-yl)-7-(thiazol-2-yl)benzo[d]oxazol-4-yl)oxy)-2,2-difluoro-N,N-dimethylacetamide] | < 0.1 | – | – |
| c1csc(-c2ccc(C3CCC3)c3nc(N4CC5CC(C4)N5)oc23)n1 [Example 414, 2-(3,6-Diazabicyclo[3.1.1]heptan-3-yl)-4-cyclobutyl-7-(thiazol-2-yl)benzo[d]oxazole] | < 0.1 | – | – |
| c1csc(-c2ccc(N3CCCC3)c3nc(N4CC5CC(C4)N5)oc23)n1 [Example 415, 2-(3,6-Diazabicyclo[3.1.1]heptan-3-yl)-4-(pyrrolidin-1-yl)-7-(thiazol-2-yl)benzo[d]oxazole] | < 0.1 | – | – |
